Measurements from patent publication US20110183978A1, “Phenylpyri(mi)dinylazoles” (Bayer CropScience AG, priority 2009, published 2011).
Where two headings read alike, the source gives them in different places.

Legend:
[1] = tested on: Alternaria solani; assay: Example M: in vivo test on Alternaria solani (leaf blotch disease/tomato/protective); conditions: 168 h, tomato, protective, 500 ppm active substance, assessed 7 days after inoculation, read-out: % Wirkungsgrad (activity level)
Outline: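 Alternaria solani infection on tomato scored 7 days post-inoculation. Before inoculation, young plants received a protective spray at the stated application dose; formulation was compound mixed with N,N-dimethylformamide and emulsifier, water-diluted.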

[2] = tested on: Sphaerotheca fuliginea; assay: Example L: in vivo test on Sphaerotheca fuliginea (powdery mildew on cucumber/protective); conditions: Podosphaera fuliginea, 168 h, cucumber, protective, assessment 7 days after inoculation, read-out: % Wirkungsgrad
Outline: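 Young cucumber plants sprayed at stated dosage with compound in DMF/alkylaryl polyglycol ether emulsifier diluted in water; inoculated with S. fuliginea spores one day later. Kept in greenhouse at 70% relative humidity, 23° C; protective activity assessed 7 days after inoculation.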

[3] = tested on: Fusarium graminearum; assay: microbe, parasite or virus in culture; assay type: cell-based
[4] = tested on: Fusarium proliferatum; assay: Example I: production of fumonisin FB1 by Fusarium proliferatum (microtitre plates); assay type: cell-based; conditions: 120 h
[5] = physchem
[6] = tested on: Aspergillus parasiticus; assay: microbe, parasite or virus in culture; assay type: cell-based; conditions: 168 h
[7] = tested on: Fusarium graminearum; assay: whole plant or invertebrate; assay type: in vivo; conditions: in Hordeum vulgare, 120 h, read-out: % Wirkungsgrad (activity level)
[8] = tested on: Fusarium nivale (var. majus); assay: whole plant or invertebrate; assay type: in vivo; conditions: Microdochium nivale, in Triticum aestivum, 120 h, read-out: % Wirkungsgrad (activity level)
[9] = tested on: Rhynchosporium secalis; assay: Example S: in vivo test on Rhynchosporium secalis (leaf scald in barley/protective); conditions: 336 h, barley, protective, 1000 ppm active substance, assessed 14 days after inoculation, read-out: % Wirkungsgrad (activity level)
Description: (§1) Solvent: 49 parts by weight N,N-dimethylacetamide Emulsifier: 1 part by weight alkylaryl polyglycol ethers For the preparation of a suitable active substance preparation, 1 part by weight of active substance is mixed with the stated quantities of solvent and emulsifier and the concentrate is diluted to the desired concentration with water. For the testing for protective activity, young plants are sprayed with the active substance preparation at the stated application dosage. After drying of the spray coating, the plants are sprayed with spores with a spore suspension of Rhynchosporium secalis. […] 14 days after the inoculation, the assessment takes place.

[10] = tested on: Leptosphaeria nodorum; assay: Example Q: in vivo test on Leptosphaeria nodorum (glume blotch in wheat/protective); conditions: Parastagonospora nodorum, 192 h, wheat, protective, assessment 8 days after inoculation, read-out: % Wirkungsgrad
Description: as §1, with “Leptosphaeria nodorum.” for “Rhynchosporium secalis.”, “8” for “14”

[11] = tested on: Septoria tritici; assay: Example R: in vivo test on Septoria tritici (leaf blotch in wheat/protective); conditions: Zymoseptoria tritici, 504 h, wheat, protective, 1000 ppm active substance, assessed 21 days after inoculation, read-out: % Wirkungsgrad (activity level)
Description: as §1, with “with” for “with spores with”, “Septoria tritici.” for “Rhynchosporium secalis.”, “21” for “14”

[12] = tested on: Venturia inaequalis; assay: Example O: in vivo test on Venturia inaequalis (apple scab/protective); conditions: 240 h, protective, assessment 10 days after inoculation, read-out: % Wirkungsgrad
Outline: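 Young plants received a preventive spray of compound formulated as an emulsifier-containing aqueous dilution at the given application rate, then were inoculated with apple scab fungus. Disease was scored 10 days post-inoculation.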

[13] = tested on: Rhizoctonia solani; assay: Example W: in vivo test on Rhizoctonia solani (sheath blight in rice/protective); conditions: 96 h, rice, protective, 250 ppm active substance, assessed 4 days after inoculation, read-out: % Activity level
Description: Solvent: 28.5 parts by weight acetone Emulsifier: 1.5 parts by weight alkylaryl polyglycol ethers For the preparation of a suitable active substance preparation, 1 part by weight of active substance is mixed with the stated quantities of solvent and emulsifier and the concentrate is diluted to the desired concentration with water. For the testing for protective activity, young rice plants are sprayed with the active substance preparation at the stated application dosage. One day after the treatment, the plants are inoculated with hyphae of Rhizoctonia solani. […] 4 days after the inoculation, the assessment takes place.

[14] = tested on: Mycosphaerella graminicola; assay: Example G: in vivo test on Mycosphaerella graminicola (wheat leaf blotch disease); conditions: Zymoseptoria tritici, wheat plants sprayed 24 hours before inoculation, scored after 21 to 28 days, read-out: % Wirkungsgrad
Description: In Vivo Test on Mycosphaerella Graminicola (Wheat Leaf Blotch Disease) An aqueous suspension of the active substance was prepared by homogenization of a mixture of acetone/Tween/dimethyl sulphoxide and subsequent dilution with water to the desired concentration. Wheat plants (variety: Scipion) are sown in cultivation dishes on a peat-pozzolanic earth substrate (50/50) at 12° C. and sprayed at the first-leaf stage (10 cm size) with the aqueous suspension described above. As a control, plants are sprayed with an aqueous solution with no active substance. After 24 hours the plants are inoculated by spraying with an aqueous suspension of Mycosphaerella graminicola spores (500,000 spores per ml). The spores are derived from a 7 day-old culture. […] After 21 to 28 days they are scored in comparison with the control plants.

[15] = tested on: Sphaerotheca fuliginea; assay: Example D: in vivo test on Sphaerotheca fuliginea (powdery mildew on cucumber); conditions: Podosphaera fuliginea, 288 h, cucumber plants sprayed 24 hours before inoculation, scored after 12 days, read-out: % Wirkungsgrad
Outline: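 Scoring took place 12 days after spore inoculation (100,000 spores/ml, at ca. 20/25° C., 60/70% RH) and was made against plants sprayed without active substance. Inoculation followed by 24 hours a spray of water-diluted acetone/Tween/DMSO compound suspension onto Z10 cotyledon-stage cucumbers.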

[16] = tested on: Botrytis cinerea; assay: Example B: in vivo test on Botrytis cinerea (grey mould on cucumbers); conditions: cucumber plants sprayed 24 hours before inoculation, scored after 5-7 days, read-out: % Wirkungsgrad
Description: In Vivo Test on Botrytis Cinerea (Grey Mould on Cucumbers) An aqueous suspension of the active substance was prepared by homogenization of a mixture of acetone/Tween/dimethyl sulphoxide and subsequent dilution with water to the desired concentration. Cucumber plants (variety: Vert petit de Paris) are sown in cultivation dishes on a peat-pozzolanic earth substrate (50/50) at 18-20° C. and sprayed at the cotyledon stage Z11 with the aqueous suspension described above. As a control, plants are sprayed with an aqueous solution with no active substance. […] The spores are derived from a 15 day-old culture which are suspended in the following nutrient solution: • 20 g/l gelatine • 50 g/l D-fructose • 2 g/l NH4NO3 • 1 g/l KH2PO4 The inoculated cucumber plants are kept for 5-7 days in a climatic chamber at […] After 5-7 days they are scored in comparison with the control plants.

[17] = tested on: Botrytis cinerea; assay: Example P: in vivo test on Botrytis cinerea (gray mould on bean/protective); conditions: 48 h, bean, protective, 250 ppm active substance, assessed 2 days after inoculation, read-out: % Wirkungsgrad (activity level)
Outline: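 Infection blotch size on leaves was scored 2 days after placing 2 Botrytis-colonised agar pieces per leaf. Inoculation followed drying of a protective spray applied to young plants at the stated dosage. Spray was prepared by diluting compound with solvent and alkylaryl polyglycol ether emulsifier in water.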

[18] = tested on: Plasmopara viticola; assay: Example N: in vivo test on Plasmopara viticola (downy mildew, vine/protective); conditions: 144 h, vine, protective, assessment 6 days after inoculation, read-out: % Wirkungsgrad
Description: Emulsifier: 1 part by weight alkylaryl polyglycol ethers For the preparation of a suitable active substance preparation, 1 part by weight of active substance is mixed with the stated quantities of solvent and emulsifier and the concentrate is diluted to the desired concentration with water. For the testing for protective activity, young plants are sprayed with the active substance preparation at the stated application dosage. […] The plants are then moistened and placed in an incubation cabin for 1 day. 6 days after the inoculation, the assessment takes place.

[19] = 72 h, read-out: % Inhibition des Pilzwachstums bei 50 μM
[20] = 168 h, read-out: % Inhibition der DON/AcDON produktion bei 50 μM
[21] = Fusarium proliferatum growth, OD 620, 5 days, read-out: % Inhibition des Pilzwachstums bei 50 μM
[22] = Fusarium proliferatum, 5 days at 20° C., HPLC-MS/MS, read-out: % Inhibition der FB1 produktion bei 50 μM
[23] = 50 μM, 7 days at 20° C., read-out: Inhibition der Aflatoxin produktion bei 50 μM
[24] = read-out: % Inhibition des Pilzwachstums bei 50 μM
[25] = LogPA (logP of the stated pure compound or, in a mixture, of the main isomer, 1-substituted 3-aryl-1H-pyrazole)

Row | Compound | pest or weed control at 500 ppm [1] | pest or weed control at 500 ppm [2] | inhibition at 50 µM [3, 19] | inhibition at 50 µM [3, 20] | inhibition at 50 µM [4, 21] | inhibition at 50 µM [4, 22] | chromatographic logP ([5]; LogPA) | pest or weed control at 1000 ppm [10] | chromatographic logP [5, 25] | pest or weed control at 100 ppm [12] | pest or weed control at 500 ppm [14] | pest or weed control at 500 ppm [16] | pest or weed control at 250 ppm [17] | further results
1 | CCn1cc(-c2ccnc(NC(=O)COC)c2)c(-c2ccc(F)cc2)n1 [Compound 203] | 93% | 95% | 100% | 100% | 99% | 100% | 2.2 |  |  |  |  |  |  | inhibition at 50 µM [6, 23]: 100%; inhibition at 50 µM [6, 24]: 100%
2 | CCC(=O)Nc1cc(-c2cn(C(C)CC)nc2-c2ccc(F)cc2)ccn1 (centres unmarked) [Compound 164] | 95% | 100% | 100% | 99% | 97% | 100% |  | 93% | 2.46 | 97% |  |  |  | pest or weed control at 1000 ppm [7]: 100%; pest or weed control at 1000 ppm [8]: 100%; pest or weed control at 1000 ppm [9]: 100%; pest or weed control at 1000 ppm [11]: 100%
3 | CC(c1cccc(Cl)c1)n1cc(-c2ccncc2)c(-c2ccc(F)cc2)n1 (centres unmarked) [Compound 101] |  |  |  |  |  |  |  |  | 2.17 |  |  |  |  | pest or weed control at 250 ppm [13]: 95%
4 | Fc1cccc(F)c1-c1c(-c2ccncc2)cnn1C1CCCC1 [Compound 17] |  |  |  |  |  |  |  |  | 1.74 |  | 88% | 83% |  | pest or weed control at 500 ppm [15]: 80%
5 | CCC(=O)Nc1cc(-c2cn(CC(C)C)nc2-c2ccc(F)cc2)ccn1 [Compound 155] | 100% | 95% | 97% | 100% | 97% | 100% |  |  | 2.51 |  |  |  | 99% | pest or weed control at 1000 ppm [7]: 88%; inhibition at 50 µM [6, 23]: 100%; inhibition at 50 µM [6, 24]: 100%
6 | CC(C)n1cc(-c2ccncc2)c(-c2c(F)cccc2F)n1 [Compound 14] |  |  |  |  |  |  |  |  | 1.4 |  | 88% | 100% |  | pest or weed control at 500 ppm [15]: 80%
7 | N#CCCn1cc(-c2ccncc2)c(-c2ccc(F)cc2)n1 [Compound 146] | 100% | 95% | 97% | 100% | 41% | 100% |  |  | 0.81 |  |  |  |  | inhibition at 50 µM [6, 23]: 100%; inhibition at 50 µM [6, 24]: 99%
8 | CC(C)Cn1cc(-c2ccnc(NC(C)C)n2)c(-c2ccc(F)cc2)n1 [Compound 174] | 100% | 100% |  |  |  |  | 2.39 | 93% |  | 100% |  |  | 80% | pest or weed control at 250 ppm [13]: 93%; pest or weed control at 1000 ppm [11]: 90%; pest or weed control at 100 ppm [18]: 70%
9 | CC(c1cnc(Cl)s1)n1cc(-c2ccncc2)c(-c2ccc(F)cc2)n1 (centres unmarked) [Compound 176] | 100% |  |  |  |  |  | 1.82 |  |  |  |  |  |  | pest or weed control at 250 ppm [13]: 97%
10 | CCC(C)n1cc(-c2ccnc(NC(=O)C3CC3)c2)c(-c2ccc(F)cc2)n1 (centres unmarked) [Compound 167] |  | 100% | 100% | 99% |  |  | 2.56 | 92% |  | 89% |  |  | 100% | pest or weed control at 1000 ppm [7]: 100%; pest or weed control at 1000 ppm [8]: 100%
11 | Fc1cccc(F)c1-c1nn(C2CCC2)cc1-c1ccncc1 [Compound 8] |  |  |  |  |  |  |  |  | 1.56 |  | 92% | 94% |  | 
12 | CC(C)Cn1cc(-c2ccncc2)c(-c2c(F)cccc2F)n1 [Compound 13] |  |  |  |  |  |  |  |  | 1.62 |  | 95% | 100% |  | pest or weed control at 500 ppm [15]: 90%
13 | COCCn1cc(-c2ccnc(NC(=O)Cc3ccccc3)c2)c(-c2ccc(F)cc2)n1 [Compound 212] | 95% | 96% |  |  |  |  | 2.6 | 71% |  | 85% |  |  | 98% | pest or weed control at 1000 ppm [8]: 75%; pest or weed control at 1000 ppm [11]: 71%; pest or weed control at 100 ppm [18]: 83%
